Values joined by “and” are separate entries in the source; they are usually repeats but may differ in a detail not shown here. Equal values may be shown once.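 Compound exposure: 48 hours, 5 concentrations, 96-well plates. GI50 is the concentration that inhibits growth by half. TGI: total growth inhibition.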
Experiments:
Test in all cases: growth of human tumour cells (NCI), 48 h
[1] = tested on: CCRF-CEM leukemia
[2] = tested on: EKVX NSCLC
[3] = tested on: HCC-2998 colon
[4] = tested on: HL-60(TB) leukemia
[5] = tested on: HT29 colon
[6] = tested on: NCI-H226 lung
[7] = tested on: NCI-H23 lung
[8] = tested on: NCI-H460 lung
[9] = tested on: PC-3 prostate
[10] = tested on: UACC-257 melanoma

Structure (SMILES)	GI50 [1]	TGI [1]	GI50 [2] [µM]	TGI [2]	GI50 [3] [µM]	TGI [3]	GI50 [4]	TGI [4]	GI50 [5]	TGI [5]	GI50 [6] [µM]	TGI [6]	GI50 [7]	TGI [7]	GI50 [8]	TGI [8]	GI50 [9] [µM]	TGI [9] [µM]	GI50 [10]	TGI [10]
CCN(CC)CC(O)c1cc(-c2ccc(Cl)cc2)nc2cc(Cl)ccc12 (stereo not given)	2.52 µM	5.56 µM	1.76	8.04 µM	1.67	3.1 µM	2.02 µM	3.74 µM	1.71 µM	3.66 µM	2.21	7.15 µM	1.79 µM	4.49 µM	1.64 µM	3.17 µM	2.08	5.98	1.86 µM	3.61 µM
Cc1nc2cc(Nc3nc(Nc4ccc(F)cc4)nc(N4CCCC4)n3)ccc2n1Cc1ccccc1	2.38 µM	5.6 µM			1.93	3.73 µM	2.58 µM	5.3 µM	1.93 µM	3.89 µM	1.9	4.29 µM	2.2 µM	5.31 µM	1.82 µM	3.44 µM	1.77	4.29	2.32 µM	5.88 µM
COc1cccc(/C=C2\CCc3ccccc3C2=O)c1	3.04 µM	16.5 µM	13.9	29.3 µM	15.8	30.6 µM	21.9 µM	67.4 µM	5.89 µM	19.4 µM	17.8	43.1 µM	16.3 µM	40.1 µM	17 µM	35 µM	16.3	65.1	13.4 µM	28.9 µM
O=C(NCCCl)NCc1ccccc1		> 100 µM		> 100 µM		> 100 µM		> 100 µM		> 100 µM		> 100 µM		> 100 µM		> 100 µM		> 100		> 100 µM
COc1ccc2c(c1)CC1N(C)CCC13CCCCC23 (stereo not given)		> 100 µM		> 100 µM		> 100 µM		> 100 µM		> 100 µM		> 100 µM		> 100 µM		> 100 µM		> 100		> 100 µM
Nc1nc(-c2ccc3ccccc3c2)cc(-c2cc(-c3ccc4ccccc4c3)nc(N)n2)n1		> 100 µM		> 100 µM		> 100 µM		> 100 µM		> 100 µM		> 100 µM		> 100 µM		> 100 µM		> 100		> 100 µM
O=C(NC(Cc1ccccc1)C(=O)CCl)OCc1ccccc1 (stereo not given)	2.34 µM	13.8 µM and 11.6 µM			12.3	28.8 µM and 32.2 µM	14.3 µM	43.1 µM and 13.4 µM	3.53 µM	16.5 µM and 37.3 µM	13.4	55.5 µM	10.5 µM	30.7 µM and 26.1 µM	4.34 µM	17.4 µM and 19.8 µM	6.13	20.3		26.7 µM and 26.2 µM
COc1cc(OC)c(/C=C/C(=O)c2c(O)cc(OC)c(C3CCN(C)CC3)c2OC)c(OC)c1	1.18 µM	2.78 µM	1.12	2.48 µM	1.46	2.82 µM	2.17 µM	3.99 µM	0.421 µM	1.5 µM			1.41 µM	2.78 µM			1.5	2.86	1.46 µM	2.77 µM
COC(=O)[C@H](C)[C@@H]1CC[C@](C)(CCC2=C(C)CCCC2(C)C)OO1		> 25 µM		> 25 µM		> 25 µM		> 25 µM		> 25 µM				> 25 µM		> 25 µM		> 25		> 25 µM
COC1C(C)OC(OC2CC(C)(O)Cc3cc4c(c(O)c32)C(=O)c2c(O)cc3c(c2C4=O)OC2OC3(C)C(O)C(N(C)C)C2O)C(OC)C1(C)OC (stereo not given)	0.0584 µM and 0.0612 µM	0.872 µM and 1.32 µM		1.21 µM and 0.304 µM	0.0393	0.447 µM and 0.178 µM	0.0711 µM and 0.105 µM	0.588 µM and 0.535 µM	0.00453 µM and 0.0379 µM		0.0198	0.395 µM and 0.113 µM	0.0395 µM and 0.0216 µM		0.0303 µM and 0.0155 µM	1.86 µM and 0.233 µM		0.00375	0.0784 µM and 0.0388 µM	
CC/C(=C(/CC)c1ccc(O)cc1)c1ccc(O)cc1			5.66	34.7 µM	10.7	23.3 µM	4.07 µM	> 100 µM	5.16 µM	17.9 µM	14.6	36 µM	5.76 µM	23 µM	4.05 µM	15.2 µM	5.75	50.9	7.04 µM	22.7 µM
[Au+].c1c[n-]cn1.c1ccc([PH+](c2ccccc2)c2ccccc2)cc1	1.78 µM	17.3 µM	11	38.2 µM	13.8	30.5 µM	1.66 µM	4.81 µM	8 µM	24.7 µM	12.8	51.3 µM	5.85 µM	25.1 µM	15.3 µM	59.9 µM	4.28	17.3	5.04 µM	15.8 µM
Cc1cc(Cl)ccc1Nc1nc2c(s1)C(=O)c1ccccc1C2=O		> 26.3 µM		21.4 µM		16.1 µM		2.68 µM		54.6 µM		13.7 µM		3.96 µM		9.5 µM		8.05		5.64 µM
Cn1cc(-c2ccc3nnc(C(F)(F)c4ccc5ncccc5c4)n3n2)cn1	98.7 µM	> 100 µM	> 83.3	> 100 µM	> 100	> 100 µM	> 100 µM	> 100 µM	63.6 µM	> 100 µM	58.5	> 100 µM	66 µM	> 100 µM	59.6 µM	> 100 µM	85	> 100	> 100 µM	> 100 µM
ClCc1ccc(-c2ccc(Cn3cnc4c(Cl)ncnc43)cc2)cc1	2.58 µM	> 100 µM	2.98	12.9 µM	1.44	2.89 µM	2.18 µM	5.59 µM			1.81	3.89 µM	1.84 µM	3.65 µM	0.486 µM	2.65 µM	2.8	9.92	3.76 µM	24.7 µM
O=C1Nc2c(ccc(Cl)c2Cl)/C1=C\c1cc(C(F)(F)F)cc(C(F)(F)F)c1	0.959 µM	2.58 µM	1.93	11.2 µM	7.71	14.9 µM	1.13 µM	2.37 µM	1.95 µM	6.68 µM	5.48	13.7 µM	4.95 µM	21.6 µM	2.45 µM	7.68 µM	1.1	4.51	6.62 µM	13.7 µM
C=CCCCC(O)c1ccc(C(O)c2cnc3ccccc3c2)o1 (stereo not given)	29.4 µM	86.7 µM	19.2	> 100 µM	19	51.4 µM			46.9 µM	> 100 µM	30.8	71.5 µM	14.3 µM	49.6 µM	26.9 µM	> 100 µM	32.6	> 100	18.8 µM	61.4 µM
Cc1ccnc(NC(c2ccccc2)c2ccc3cccnc3c2O)c1 (stereo not given)	2.43 µM	> 100 µM	2.64	15.8 µM	7.12	> 100 µM	1.7 µM	5.4 µM			4.48	44.6 µM	5.12 µM	> 100 µM	2.16 µM	6.34 µM	5.94	> 100	2.62 µM	9.9 µM
CSc1nc(SC)c2c(C)cn(C3OC(C)C(O)C(O)C3O)c2n1 (stereo not given)		> 100 µM		> 100 µM		> 100 µM		> 100 µM		> 100 µM		> 100 µM		> 100 µM		> 100 µM		> 100		
COc1cc(-c2ccc(=O)oc2C#Cc2ccccc2)cc(OC)c1OC			83.4	> 100 µM	> 100	> 100 µM	8.56 µM	> 100 µM	16.6 µM	> 100 µM	22.8	> 100 µM	36.9 µM	> 100 µM	> 100 µM	> 100 µM	> 100	> 100	56.7 µM	> 100 µM
O=C(Nc1ccc(Cl)cc1)c1cc2ccccc2cc1OP(=O)(O)O	2.82 µM	> 100 µM	2.82	25.2 µM	4.19	29.9 µM	> 100 µM	> 100 µM	28.9 µM	> 100 µM	2.97	16.9 µM	2.42 µM	9.95 µM	3.43 µM	16.8 µM	2.92	> 100		
O=C(Nc1nc(-c2ccccc2Cl)cs1)c1cc(-c2ccc(Cl)cc2)nc2ccc(Cl)cc12	3.54 µM	> 100 µM	7.18	> 100 µM	5.61	> 100 µM			3.52 µM	> 100 µM	2.32	8.54 µM	3.8 µM	> 100 µM	31.8 µM	> 100 µM	3.25	34.5	14.9 µM	> 100 µM

Reference: PubChem BioAssay (NCI)
